In article PMC10799935, “Discovery of a peripheral 5HT2A antagonist as a clinical candidate for metabolic dysfunction-associated steatohepatitis” (Nature Communications, 2024):
Several values for one entry are separate records, joined by “and”; a condition that tells them apart may be missing. Equal entries are not always repeated.

Legend:
[1] = target: T1, 5HT2B (h) (Homo sapiens, UniProt P41595); experiment: 5HT subtype antagonism assay (Eurofins Cerep): 5HT2B; format: cell-based
T1 construct: host or cells: CHO cells
T1 sequence (P41595 whole entry): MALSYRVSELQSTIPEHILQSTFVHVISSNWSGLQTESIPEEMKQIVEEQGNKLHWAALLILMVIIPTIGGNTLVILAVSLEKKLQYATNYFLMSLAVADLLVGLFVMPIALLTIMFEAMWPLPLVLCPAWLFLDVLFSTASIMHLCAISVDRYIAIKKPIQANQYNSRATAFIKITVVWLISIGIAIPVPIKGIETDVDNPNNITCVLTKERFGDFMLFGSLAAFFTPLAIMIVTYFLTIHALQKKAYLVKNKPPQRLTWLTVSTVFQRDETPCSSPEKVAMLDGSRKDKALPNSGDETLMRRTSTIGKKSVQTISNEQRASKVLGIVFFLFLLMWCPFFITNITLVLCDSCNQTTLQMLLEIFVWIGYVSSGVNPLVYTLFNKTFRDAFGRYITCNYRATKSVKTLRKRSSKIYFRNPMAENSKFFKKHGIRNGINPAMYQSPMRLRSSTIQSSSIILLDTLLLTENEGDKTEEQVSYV
Method: The derivatives were evaluated at a concentration of 1 μM for their antagonist activity on the 5HT2A receptor (Tables 1–3)[33],[34]. Human 5HT2A stably transfected HEK293 cells (a type of cell derived from kidney embryos)[20] were seeded in a 96-well plate (Costar; 3603) at a density of 9 × 10^4 in 100 μL of minimum essential medium (Welgene; LM007-86) containing 10% dialyzed fetal bovine serum (Gibco; 30067–334) and 1% penicillin/streptomycin (Gibco; 15140-122) and kept in a 37 °C incubator for 24 h. The cells were stained with 100 μL of cytosolic calcium dye using the FLIPR calcium 6 assay solution (Molecular devices, #R8190) supplemented with 2.5 mM probenecid (Sigma; P8761) and incubated for 1 h at 37 °C. After 1 h, the designated amount of the compound was treated in each well and incubated for another 1 h at 37 °C. Then, the cells were loaded in a Flexstation 3 microplate reader (Molecular Devices; FlexStaion) and 50 μL of 5 μM 5HT (serotonin hydrochloride, Sigma; H9523) was injected from a source plate (Nunc 96-well polystyrene conical bottom MicroWell Plate, Thermo; 249662) and the fluorescence intensity (Ex/Em-485nm/ 525 nm) was measured. […]
Antagonism assay Source Stimulus Incubation Measured Detection Method […]

[2] = tested on: HFD-fed C57BL/6J mice; experiment: DIO mice (HFD, 8 weeks): body weight; format: in vivo, mouse; conditions: for Body weight: Predicted (LS) mean diff., Vehicle vs. 11c: Dunnett's test; for 16hr fasting B.W.: DIO C57BL/6J mice, PO; for Body weight: DIO mice, individual mice and group Mean, in g (unit assumed)
From the text: For in vivo efficacy in DIO models and CDAHFD models, the experimental protocol for this study was approved by the Institutional Animal Care and Use Committee (IACUC) at the Korea Advanced Institute of Science and Technology (No. KA2023-027-v2) or Kyungpook National University (No. KNU-20200134). All relevant ethical guidelines were followed. C57BL/6 J male mice (11 weeks old) were purchased from the Charles River Japan and were housed in a specific pathogen-free barrier facility under a regular light-dark cycle (12-hour light/12-hour dark) at 24°C with 40–60% humidity. Food (standard chow diet, Envigo, 2018S) and water were provided ad libitum. […] Mice were euthanized by the method of cervical dislocation. The measurement of lean and fat mass in live mice was performed by a body composition analyzer (LF50 BCA-analyzer, Bruker). After 6 h of fasting, mice were sacrificed, and tissue samples were obtained.

`Cc1nc2n(c(=O)c1CCN1CCC(=C3c4ccc(Cl)cc4CCc4cccnc43)CC1)CCCC2O` (stereo not shown) [Compound 11c] was tested, and the “Selectivity 2B: % inhibition” value ([1]; concentration not given) was 94%, the IC50 ([1]; read-out: Selectivity 2B: IC50) was 290 nM and the Body weight: Predicted (LS) mean diff., Vehicle vs. 11c ([2]; 5mpk, week 12) was 0.7 g. The Body weight: Predicted (LS) mean diff., Vehicle vs. 11c ([2]; 5mpk, week 13) was 0.6 g, the Body weight: Predicted (LS) mean diff., Vehicle vs. 11c ([2]; 5mpk, week 14) was 0.7 g and the Body weight: Predicted (LS) mean diff., Vehicle vs. 11c ([2]; 5mpk, week 15) was 0.6 g. The Body weight: Predicted (LS) mean diff., Vehicle vs. 11c ([2]; 5mpk, week 16) was 1.1 g, the Body weight: Predicted (LS) mean diff., Vehicle vs. 11c ([2]; 5mpk, week 17) was 1.7 g and the Body weight: Predicted (LS) mean diff., Vehicle vs. 11c ([2]; 5mpk, week 18) was 2.1 g. For the same molecule, the Body weight: Predicted (LS) mean diff., Vehicle vs. 11c ([2]; 5mpk, week 19) was 2.7 g, the Body weight: Predicted (LS) mean diff., Vehicle vs. 11c ([2]; 5mpk, week 20) was 2.7 g and the Body weight: Predicted (LS) mean diff., Vehicle vs. 11c ([2]; 5mpk, week 21) was 3.4 g. For the same molecule, the “body weight gain upon HFD” value ([2]; 10 mpk daily oral gavage, 8 weeks, vs vehicle-treated mice) was “attenuated”, the Body weight: Predicted (LS) mean diff., Vehicle vs. 11c ([2]; 10mpk, week 12) was 0.1 g and the Body weight: Predicted (LS) mean diff., Vehicle vs. 11c ([2]; 10mpk, week 13) was 0.9 g. It also gave a Body weight: Predicted (LS) mean diff., Vehicle vs. 11c ([2]; 10mpk, week 14) of 1.5 g, a Body weight: Predicted (LS) mean diff., Vehicle vs. 11c ([2]; 10mpk, week 15) of 1.8 g and a Body weight: Predicted (LS) mean diff., Vehicle vs. 11c ([2]; 10mpk, week 16) of 3.7 g. For the same molecule, the Body weight: Predicted (LS) mean diff., Vehicle vs. 11c ([2]; 10mpk, week 17) was 6.3 g, the Body weight: Predicted (LS) mean diff., Vehicle vs. 11c ([2]; 10mpk, week 18) was 7.2 g and the Body weight: Predicted (LS) mean diff., Vehicle vs. 11c ([2]; 10mpk, week 19) was 7.7 g. For the same molecule, the Body weight: Predicted (LS) mean diff., Vehicle vs. 11c ([2]; 10mpk, week 20) was 7.2 g, the Body weight: Predicted (LS) mean diff., Vehicle vs. 11c ([2]; 10mpk, week 21) was 7.2 g and the “16hr fasting B.W.” value ([2]; 5mpk, group mean) was 41.2. For the same molecule, the “16hr fasting B.W.” value ([2]; 5mpk, individual animals, 5 mg/kg) was 43.7 and 38.6 and 37.5 and 35.1 and 41.4 and 48.5 and 43.4, the “16hr fasting B.W.” value ([2]; 10mpk, group mean) was 36.5 and the “16hr fasting B.W.” value ([2]; 10mpk, individual animals, 10 mg/kg) was 33.5 and 41.1 and 34.8 and 42.8 and 35.7 and 31.2. For the same molecule, the “Body weight” value ([2]; 5mpk PO, week 12 (2021.04.26), 5 mg/kg) was 25.4 and 23.4 and 24.4 and 26.8 and 26.0 and 30.2 and 25.6, the “Body weight” value ([2]; 5mpk PO, week 13, 5 mg/kg) was 29.8 and 27.5 and 28.5 and 28.2 and 28.9 and 32.0 and 29.6 and the “Body weight” value ([2]; 5mpk PO, week 13, 5 mg/kg, mean) was 29.2. The “Body weight” value ([2]; 5mpk PO, week 14, 5 mg/kg) was 32.9 and 29.6 and 29.0 and 31.0 and 34.0 and 31.6, the “Body weight” value ([2]; 5mpk PO, week 15, 5 mg/kg) was 35.3 and 30.6 and 29.8 and 29.5 and 33.2 and 37.1 and 34.1 and the “Body weight” value ([2]; 5mpk PO, week 15, 5 mg/kg, mean) was 32.8. The “Body weight” value ([2]; 5mpk PO, week 16, 5 mg/kg) was 37.5 and 32.7 and 32.5 and 31.1 and 35.5 and 40.4 and 36.8, the “Body weight” value ([2]; 5mpk PO, week 16, 5 mg/kg, mean) was 35.2 and the “Body weight” value ([2]; 5mpk PO, week 17, 5 mg/kg) was 39.7 and 34.6 and 33.9 and 32.4 and 37.7 and 43.6 and 39.6. The “Body weight” value ([2]; 5mpk PO, week 17, 5 mg/kg, mean) was 37.4, the “Body weight” value ([2]; 5mpk PO, week 18, 5 mg/kg) was 41.7 and 36.9 and 35.3 and 33.1 and 40.0 and 45.0 and 41.5 and the “Body weight” value ([2]; 5mpk PO, week 18, 5 mg/kg, mean) was 39.1. For the same molecule, the “Body weight” value ([2]; 5mpk PO, week 19, 5 mg/kg) was 43.5 and 38.6 and 37.3 and 34.8 and 41.8 and 47.5 and 43.3, the “Body weight” value ([2]; 5mpk PO, week 19, 5 mg/kg, mean) was 41.0 and the “Body weight” value ([2]; 5mpk PO, week 20, 5 mg/kg) was 45.7 and 40.4 and 39.5 and 37.0 and 43.5 and 51.0 and 45.4. For the same molecule, the “Body weight” value ([2]; 5mpk PO, week 20, 5 mg/kg, mean) was 43.2, the “Body weight” value ([2]; 5mpk PO, week 21, 5 mg/kg) was 44.4 and 40.2 and 39.8 and 36.4 and 42.4 and 50.0 and 45.2 and the “Body weight” value ([2]; 5mpk PO, week 21, 5 mg/kg, mean) was 42.6. The “Body weight” value ([2]; 10mpk PO, week 12 (2021.04.26), 10 mg/kg) was 26.6 and 29.1, the “Body weight” value ([2]; 10mpk PO, week 13, 10 mg/kg) was 29.9 and 31.2 and the “Body weight” value ([2]; 10mpk PO, week 14, 10 mg/kg) was 31.8 and 32.6. The “Body weight” value ([2]; 10mpk PO, week 15, 10 mg/kg) was 34.0 and 33.3 and 29.5, the “Body weight” value ([2]; 10mpk PO, week 16, 10 mg/kg) was 36.3 and 34.1 and 30.0 and the “Body weight” value ([2]; 10mpk PO, week 17, 10 mg/kg) was 36.6 and 35.0 and 29.8. For the same molecule, the “Body weight” value ([2]; 10mpk PO, week 18, 10 mg/kg) was 35.5 and 37.1, the “Body weight” value ([2]; 10mpk PO, week 19, 10 mg/kg) was 34.6 and 39.9 and the “Body weight” value ([2]; 10mpk PO, week 20, 10 mg/kg) was 35.7 and 43.1. The “Body weight” value ([2]; 10mpk PO, week 21, 10 mg/kg) was 36.0 and 43.2.
